Values after ≈ are worked out from the molar mass of the structure shown. Where two headings read alike, the source gives them in different places.
Tests used:
human EP2 receptors = biological target: T1, human EP2 receptors (Homo sapiens, UniProt P43116); assay: cell-based cAMP TR-FRET assay, rightward shift of PGE2 concentration response curve (Schild KB), EP2; conditions: Schild regression analysis
T1 construct: expressed in transfected cells
Outline: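 C6G cells overexpressing human EP2 were pre-incubated 0.5–1 h at RT in HBSS with 20 μM rolipram, then exposed to 1 μM compound for 10 min before increasing PGE2 for 40 min at RT. cAMP was read by TR-FRET (cAMP-d2/anti-cAMP cryptate, F665/F590). KB is the antagonist concentration giving a twofold rightward shift of the PGE2 curve.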

[1] = pH 7.4
[2] = mouse, in vivo
physchem = conditions: pH 7.4, aqueous buffer, kinetic from dmso stock

T1 sequence (P43116 whole entry): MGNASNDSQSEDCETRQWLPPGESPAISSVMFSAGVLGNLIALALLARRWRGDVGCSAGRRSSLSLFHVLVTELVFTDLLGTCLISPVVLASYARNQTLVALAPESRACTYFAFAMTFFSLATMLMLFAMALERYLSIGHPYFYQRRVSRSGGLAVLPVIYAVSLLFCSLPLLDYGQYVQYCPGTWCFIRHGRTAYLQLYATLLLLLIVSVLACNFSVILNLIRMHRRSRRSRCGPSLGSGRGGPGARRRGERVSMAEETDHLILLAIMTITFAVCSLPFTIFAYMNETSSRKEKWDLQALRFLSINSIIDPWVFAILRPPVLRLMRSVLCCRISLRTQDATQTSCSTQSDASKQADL

Row | Compound | mechanism of antagonism of EP2 (human EP2 receptors) | Solubility [1] | C-max ([2]; ip, 5 mg/kg) | T1/2 (plasma) ([2]; ip, 5 mg/kg) | C-max ([2]; po, 10 mg/kg) | T1/2 (plasma) ([2]; po, 10 mg/kg) | Solubility (physchem)
1 | Cc1cc2ccccc2n1CCNC(=O)/C=C/c1ccc(OCCO)c(OCCO)c1 [Compound 16a, (E)-3-(3,4-bis(2-hydroxyethoxy)phenyl)-N-(2-(2-methyl-1H-indol-1-yl)ethyl)acrylamide] | competitive | 153 µM (≈ 64.9 µg/mL) | 1510 ± 142 ng/mL | 1.49 h | 128 ± 23 ng/mL | 1.44 h | 
2 | O=C(/C=C/c1ccc(OCCO)c(OCCO)c1)NCCn1c(C(F)(F)F)cc2ccccc21 [Compound 16b] |  | 67 µM (≈ 32.1 µg/mL) |  |  |  |  | 67 µM (≈ 32.1 µg/mL)

Reference: patent publication US11077120B2, “Prostaglandin receptor EP2 antagonists, derivatives, compositions, and uses related thereto” (Emory University, priority 2014, dated 2021)
